Several values for one entry are separate records, joined by “and”; a condition that tells them apart may be missing. Equal entries are not always repeated.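 Five concentrations, 48 hours, 96-well plates. GI50 marks 50% less growth. At the TGI there is no net growth.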 Where only a bound is given, the exact number is not on record here.

Holding throughout (assay): DTP human tumour cell line panel, 48 h
The test system of test [1] is HCT-15 colon.
For test [2], the system named is RXF 393 renal.
Test [3] has as its system BT-549 breast.
The subject of test [4] is NCI-H460 lung.
The subject of test [5] is NCI-H522 lung.
Test [6] deals with UACC-257 melanoma.
In test [7] the test system is 786-0 renal.
The test system of test [8] is NCI-H226 lung.
Test [9] has as its system HL-60(TB) leukemia.
Test [10] has as its system UACC-62 melanoma.
Test [11] concerns MCF7 breast.
For test [12], the system named is SNB-19 CNS.
The test system of test [13] is EKVX NSCLC.
In test [14] the test system is SK-OV-3 ovarian.
In test [15] the test system is NCI/ADR-RES ovarian.
Test [16] relates to M14 melanoma.
Test [17] relates to SNB-75 CNS.
Test [18] has as its system SF-539 CNS.

As usually defined, the TGI is the concentration giving total growth inhibition. Low values mean more potent growth arrest, high ones less potent growth arrest. On to `[N-]=[NH+]CC(=O)OC(COCc1ccccc1)COCc1ccccc1`, for which the TGI in test [1], in test [2], in [3], in test [4], in test [5] and in test [6] was > 100 µM in each case. Besides, the concentration for total growth inhibition (TGI) in test [7], in [8], in test [9], in test [10], in test [11] and in [12] was > 100 µM in each case. The TGI in test [13] and in test [14] was > 100 µM each time.

As to `CCOC(=O)C(NC(=O)CC(C)C)(Nc1ccc(S(=O)(=O)Nc2nc(C)cc(C)n2)cc1)C(F)(F)F` (stereo not given), the TGI in test [1], in test [15], in test [2], in [3], in test [16] and in test [4] was > 100 µM in each case. Besides, the TGI in test [5], in [6], in [7], in [8], in test [9] and in [10] was > 100 µM in each case. In addition, the concentration for total growth inhibition (TGI) in test [17], in test [18], in test [12], in test [13] and in test [14] was > 100 µM throughout.

On to `CCN(CC)C(=S)SNCc1ccc(S(N)(=O)=O)cc1`, for which the total growth inhibition concentration (TGI) is 58 µM in test [1]; 41.8 µM in test [15]; 45.9 µM in test [2]; 33 µM in [3]; 25.1 µM in test [16]; 34.4 µM in test [4]. In addition, the TGI in [5] is 22.2 µM; in [6] it was 33.5 µM; in test [7] it was 28 µM; in test [8] it was > 63.2 µM; in test [9], 22.8 µM; in test [10], 83.1 µM. Further, the TGI in test [17] is 39.5 µM; in test [18] it was 32.1 µM; in test [12] it was 34.1 µM; in test [13] it was 43.5 µM; in [14], > 86 µM.

As for `O=C1CCC2CCC1C2` (stereo not given), the TGI in [1], in test [15], in [2], in [16], in test [4] and in test [6] was > 100 µM each time. In addition, the TGI in test [7], in test [8], in test [9], in test [10], in test [17] and in [11] was > 100 µM throughout. For the same compound, the concentration for total growth inhibition (TGI) in [18], in test [12] and in test [14] was > 100 µM in each case.

`O=C1c2ccccc2-c2ccc(N=Nc3c(O)ccc4ccccc34)cc21`: the TGI in test [1], in [15], in test [2], in [3], in test [16] and in test [5] was > 100 µM each time. Also, the TGI in test [6], in [7], in test [8], in test [10], in [17] and in test [12] was > 100 µM each time. In addition, the TGI in test [13] and in test [14] was > 100 µM in each case.

For orientation: GI50 means the concentration giving 50% growth inhibition. Consider `CCOC(=O)c1c(-c2ccc(O)c(OC)c2)c(C#N)c(=S)n(C2OC(COC(C)=O)C(OC(C)=O)C(OC(C)=O)C2OC(C)=O)c1-c1ccccc1` (stereo not given), for which the TGI in [1], in test [15], in test [2], in test [3], in test [16] and in test [4] was > 100 µM in each case. Besides, the TGI in test [5] is 51.3 µM and 54.4 µM; in [6], > 100 µM; in test [7] it was > 100 µM; in test [9] it was > 100 µM; in test [10] it was > 100 µM; in test [11], > 100 µM. For the same compound, the TGI in [12] and in test [13] was > 100 µM each time. For the same compound, the GI50 in test [10] is 45.4 µM and > 100 µM; in [11], 22.4 µM and 63.3 µM.

With `COc1cc(NCc2ccc3nc(OC)c(OC)nc3c2)cc(OC)c1OC`, the TGI in test [1], in [15], in [2], in [16], in [4] and in test [5] was > 100 µM in each case. Also, the TGI in test [6], in test [7], in test [8], in test [9], in [10] and in test [17] was > 100 µM in each case. In addition, the total growth inhibition concentration (TGI) in [11], in test [18], in [12], in [13] and in test [14] was > 100 µM each time.

For the compound `O=C(C1C(c2ccccc2)N1C(c1ccccc1)c1ccccc1)C1C(c2ccccc2)N1C(c1ccccc1)c1ccccc1` (stereo not given), the TGI in test [15] is > 100 µM; in [16], > 100 µM; in [4] it was 29.5 µM; in [5], 23.7 µM; in [6], 40.3 µM; in [7], 48.2 µM. For the same compound, the TGI in test [9] is 12 µM; in test [17], > 100 µM; in [11], 22.4 µM; in test [18], 43.4 µM; in [12], > 100 µM; in test [13] it was > 100 µM. The TGI in test [14] is > 100 µM.

As for `C=C(Br)CN(C(C)=O)C1CCCCC1`, the TGI in [1], in test [15], in test [2], in test [16], in test [4] and in test [5] was > 100 µM in each case. The TGI in test [6], in test [7], in test [8], in [9], in test [10] and in test [17] was > 100 µM each time. Besides, the concentration for total growth inhibition (TGI) in [11], in test [18], in test [12], in test [13] and in test [14] was > 100 µM throughout.

The values above are taken from PubChem BioAssay (NCI).
